PubChem BioAssay (NCI)
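Growth conditions: 96-well plates. Treatment: test compound, 48 hours, 5 concentrations. Analysis: linear interpolation between bracketing concentrations; unreached endpoints set to highest concentration. TGI is the concentration that stops growth completely.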

Key:
Experiment in all cases: NCI-60 cell line screen, 48 h
[1] = test system: CAKI-1 renal
[2] = test system: MALME-3M melanoma
[3] = test system: OVCAR-8 ovarian
[4] = test system: HCT-15 colon
[5] = test system: SK-MEL-2 melanoma
[6] = test system: SK-OV-3 ovarian
[7] = test system: HT29 colon
[8] = test system: UO-31 renal
[9] = test system: HCC-2998 colon
[10] = test system: SF-539 CNS
[11] = test system: K-562 leukemia
[12] = test system: COLO 205 colon
[13] = test system: SNB-75 CNS
[14] = test system: SK-MEL-5 melanoma
[15] = test system: NCI-H226 lung
[16] = test system: SN12C renal
[17] = test system: SF-268 CNS
[18] = test system: SF-295 CNS
[19] = test system: OVCAR-3 ovarian
[20] = test system: A498 renal
[21] = test system: LOX IMVI melanoma
[22] = test system: ACHN renal
[23] = test system: HOP-62 NSCLC
[24] = test system: XF 498 CNS
[25] = test system: NCI-H460 lung
[26] = test system: SNB-19 CNS
[27] = test system: RXF 393 renal
[28] = test system: SW-620 colon
[29] = test system: OVCAR-5 ovarian
[30] = test system: LXFL 529 NSCLC
[31] = test system: M14 melanoma
[32] = test system: RPMI-8226 leukemia
[33] = test system: HCT-116 colon
[34] = test system: SK-MEL-28 melanoma
[35] = test system: CCRF-CEM leukemia
[36] = test system: OVCAR-4 ovarian
[37] = test system: NCI-H23 lung
[38] = test system: IGROV1 ovarian
[39] = test system: DMS 114 small cell lung
[40] = test system: KM12 colon
[41] = test system: RXF-631 renal
[42] = test system: HOP-18 NSCLC
[43] = test system: HOP-92 NSCLC
[44] = test system: TK-10 renal
[45] = test system: U251 CNS
[46] = test system: UACC-257 melanoma
[47] = test system: NCI-H522 lung
[48] = test system: HL-60(TB) leukemia
[49] = test system: SNB-78 CNS
[50] = test system: SR leukemia
[51] = test system: UACC-62 melanoma
[52] = test system: KM20L2 colon
[53] = test system: DLD-1 colon
[54] = test system: MOLT-4 leukemia
[55] = test system: EKVX NSCLC
[56] = test system: 786-0 renal
[57] = test system: M19-MEL melanoma
[58] = test system: A549 NSCLC
[59] = test system: DMS 273 small cell lung

SMILES: CC/C(SC)=[N+](\C)[O-]
- TGI [1]: > 100 µM
- TGI [2]: > 100 µM
- TGI [3]: > 100 µM
- TGI [4]: > 100 µM
- TGI [5]: > 100 µM
- TGI [6]: > 100 µM
- TGI [7]: > 100 µM
- TGI [8]: > 100 µM
- TGI [9]: > 100 µM
- TGI [10]: > 100 µM
- TGI [11]: > 100 µM
- TGI [12]: > 66.9 µM
- TGI [13]: > 100 µM
- TGI [14]: > 100 µM
- TGI [15]: > 100 µM
- TGI [16]: > 100 µM
- TGI [17]: > 100 µM
- TGI [18]: > 100 µM
- TGI [19]: > 100 µM
- TGI [20]: > 100 µM
- TGI [21]: > 55.8 µM
- TGI [22]: > 100 µM
- TGI [23]: > 100 µM
- TGI [24]: > 100 µM
- TGI [25]: > 100 µM
- TGI [26]: > 100 µM
- TGI [27]: > 100 µM
- TGI [28]: > 100 µM
- TGI [29]: > 100 µM
- TGI [30]: > 100 µM
- TGI [31]: > 100 µM
- TGI [32]: > 100 µM
- TGI [33]: > 68.4 µM
- TGI [34]: > 100 µM
- TGI [35]: 23.2 µM
- TGI [36]: > 100 µM
- TGI [37]: > 100 µM
- TGI [38]: > 100 µM
- TGI [39]: > 54.2 µM
- TGI [40]: > 100 µM
- TGI [41]: > 100 µM
- TGI [42]: > 100 µM
- TGI [43]: > 100 µM
- TGI [44]: > 100 µM
- TGI [45]: > 100 µM
- TGI [46]: > 100 µM
- TGI [47]: > 62.3 µM
- TGI [48]: 25.2 µM
- TGI [49]: > 100 µM
- TGI [50]: 50 µM
- TGI [51]: > 100 µM
- TGI [52]: > 100 µM
- TGI [53]: > 69 µM
- TGI [54]: 79.3 µM
- TGI [55]: > 100 µM
- TGI [56]: > 100 µM
- TGI [57]: > 100 µM
- TGI [58]: > 100 µM

SMILES: Cc1ccc(NC(=O)CC2C(=O)Nc3ccccc3S2=O)c(C)c1 (stereo not drawn)
- TGI [1]: > 48.4 µM
- TGI [2]: > 68.2 µM
- TGI [59]: > 54.1 µM
- TGI [3]: 34.1 µM
- TGI [4]: 25.4 µM
- TGI [5]: 35.9 µM
- TGI [6]: 33.9 µM
- TGI [7]: 20.4 µM
- TGI [8]: 45.3 µM
- TGI [9]: > 72.6 µM
- TGI [10]: 26.3 µM
- TGI [11]: > 87.1 µM
- TGI [12]: 60.5 µM
- TGI [13]: 30 µM
- TGI [14]: 38.1 µM
- TGI [15]: 51.6 µM
- TGI [16]: 96.7 µM
- TGI [17]: 65.3 µM
- TGI [18]: 29.7 µM
- TGI [19]: 23.2 µM
- TGI [20]: 61.3 µM
- TGI [21]: > 87.7 µM
- TGI [22]: 72.9 µM
- TGI [23]: 38.1 µM
- TGI [24]: 28.7 µM
- TGI [25]: > 64.3 µM
- TGI [26]: 30.8 µM
- TGI [27]: 24.1 µM
- TGI [28]: 67.4 µM
- TGI [29]: > 100 µM
- TGI [30]: 61.6 µM
- TGI [31]: 46.7 µM
- TGI [32]: 44.8 µM
- TGI [33]: 38.3 µM
- TGI [34]: > 100 µM
- TGI [35]: 67 µM
- TGI [36]: 41.6 µM
- TGI [37]: 32.8 µM
- TGI [38]: 42.1 µM
- TGI [39]: 34.4 µM
- TGI [40]: > 100 µM
- TGI [41]: > 71.3 µM
- TGI [42]: 67.4 µM
- TGI [43]: 29.8 µM
- TGI [44]: 56.5 µM
- TGI [45]: 27 µM
- TGI [46]: > 100 µM
- TGI [47]: 22 µM
- TGI [48]: 11 µM
- TGI [49]: 47.6 µM
- TGI [50]: 7.54 µM
- TGI [51]: 42.4 µM
- TGI [52]: > 49.1 µM
- TGI [53]: > 76.5 µM
- TGI [54]: > 52.5 µM
- TGI [55]: > 100 µM
- TGI [56]: 33.4 µM
- TGI [57]: > 69.1 µM
- TGI [58]: 64.8 µM

SMILES: Nc1nc(=Nc2ccccc2)ss1
- TGI [1]: > 100 µM
- TGI [2]: > 100 µM
- TGI [59]: > 100 µM
- TGI [3]: > 100 µM
- TGI [6]: > 100 µM
- TGI [7]: > 100 µM
- TGI [8]: > 100 µM
- TGI [9]: > 100 µM
- TGI [10]: > 100 µM
- TGI [11]: > 100 µM
- TGI [12]: > 100 µM
- TGI [13]: > 100 µM
- TGI [14]: > 100 µM
- TGI [15]: > 100 µM
- TGI [16]: > 100 µM
- TGI [17]: > 100 µM
- TGI [18]: > 100 µM
- TGI [19]: > 100 µM
- TGI [20]: > 100 µM
- TGI [21]: > 100 µM
- TGI [22]: > 100 µM
- TGI [23]: > 100 µM
- TGI [24]: > 100 µM
- TGI [25]: > 100 µM
- TGI [26]: > 100 µM
- TGI [27]: > 100 µM
- TGI [28]: > 100 µM
- TGI [29]: > 100 µM
- TGI [30]: > 100 µM
- TGI [31]: > 100 µM
- TGI [32]: > 100 µM
- TGI [33]: > 100 µM
- TGI [34]: > 100 µM
- TGI [36]: > 100 µM
- TGI [37]: > 100 µM
- TGI [38]: > 100 µM
- TGI [39]: > 100 µM
- TGI [40]: > 100 µM
- TGI [41]: > 100 µM
- TGI [42]: > 100 µM
- TGI [43]: > 100 µM
- TGI [44]: > 100 µM
- TGI [45]: > 100 µM
- TGI [46]: > 100 µM
- TGI [47]: > 100 µM
- TGI [48]: 60.2 µM
- TGI [49]: > 100 µM
- TGI [50]: > 100 µM
- TGI [51]: > 100 µM
- TGI [52]: > 100 µM
- TGI [53]: > 100 µM
- TGI [54]: > 100 µM
- TGI [55]: > 100 µM
- TGI [56]: > 100 µM
- TGI [57]: > 100 µM
- TGI [58]: > 100 µM
